One assay has as its target Rho-A (Homo sapiens (Human), UniProt P61586). Description: Rho inhibition assay (labeled GTP). The conditions noted are these: read-out: Rho-A % Inh. The format is binding.
The target in another assay is Rac-1 (Homo sapiens (Human), UniProt P63000). The assay is described as follows: Rac inhibition assay (labeled GTP). The format is binding. To be noted: read-out: Rac-1 % Inh.
For the next assay, the target named is KRas G12D mutant protein (Homo sapiens (Human), UniProt P01116, G12D). The assay is described as follows: Ras GTP binding domain inhibition assay (labeled GTP). To be noted: at 20 μM; read-out: KRas G12D % Inh.
Sequence of KRas G12D mutant protein (P01116-2 other isoform, or with tags, fused parts or gaps G12D): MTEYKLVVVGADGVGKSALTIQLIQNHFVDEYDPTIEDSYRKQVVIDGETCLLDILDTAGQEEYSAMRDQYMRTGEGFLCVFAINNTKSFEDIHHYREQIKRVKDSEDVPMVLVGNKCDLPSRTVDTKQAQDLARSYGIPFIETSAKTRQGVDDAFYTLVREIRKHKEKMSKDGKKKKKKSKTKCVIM
The target of assay [1] is KRas G12D/Q61H double mutant (Homo sapiens (Human), UniProt P01116, G12D/Q61H). Described as above. The conditions noted are these: at 20 μM; read-out: KRas G12D Q61H % Inh. The method, boiled down: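 Fluorescence read-out of Cy3-/Cy5-GTP remaining bound to nickel-immobilized His-KRas after washes. Protein was coated overnight at 4° C, then exposed to compound for 3 h at room temperature before a 45 min labeled-GTP incubation.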
Sequence of KRas G12D/Q61H double mutant (P01116-2 other isoform, or with tags, fused parts or gaps G12D/Q61H): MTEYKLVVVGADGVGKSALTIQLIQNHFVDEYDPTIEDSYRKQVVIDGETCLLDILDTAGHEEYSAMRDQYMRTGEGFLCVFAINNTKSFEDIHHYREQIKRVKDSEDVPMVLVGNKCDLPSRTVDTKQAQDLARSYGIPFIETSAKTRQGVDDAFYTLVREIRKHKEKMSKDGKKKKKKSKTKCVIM

Sequence of Rho-A (P61586 whole entry): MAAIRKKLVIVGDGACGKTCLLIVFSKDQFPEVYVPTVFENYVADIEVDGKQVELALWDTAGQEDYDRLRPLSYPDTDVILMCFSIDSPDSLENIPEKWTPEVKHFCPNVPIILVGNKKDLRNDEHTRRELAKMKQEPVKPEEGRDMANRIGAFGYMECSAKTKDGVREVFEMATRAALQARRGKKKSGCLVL

For the compound `COc1ccc(-c2csc3c(O)nc(-c4ccccn4)nc23)c(C)c1` [drawing 3753], the inhibition at 20 µM at Rho-A lay within 76 to 100%; on Rac-1, 76 to 100%; at KRas G12D mutant protein it was 51 to 75%; in assay [1] it was 51 to 75%.
Regarding `Nc1cccc(-c2csc3c(O)nc(-c4ccccn4)nc23)n1` [drawing 3832], the inhibition at 20 µM at Rho-A lay in the range of 76 to 100%; on Rac-1, 76 to 100%; at KRas G12D mutant protein it was 51 to 75%; in assay [1], 51 to 75%.
Turning to `O=C(c1csc2c(O)nc(-c3ccccn3)nc12)N1CCOC(c2ccccc2Cl)C1` (stereo not shown) [drawing 3658], the inhibition at 20 µM on Rho-A fell in the range of 76 to 100%; at Rac-1 it was 51 to 75%; on KRas G12D mutant protein it was 25 to 50%; in assay [1] it was 51 to 75%.
`Oc1cccc(-c2csc3c(O)nc(-c4ccccn4)nc23)n1` [drawing 3817]: the inhibition at 20 µM was 76 to 100% on Rho-A, 76 to 100% at Rac-1, 51 to 75% at KRas G12D mutant protein and 51 to 75% in assay [1].
Consider `Oc1nc(-c2ccccn2)nc2cc(-c3ccccc3)sc12` [drawing 3880], for which the inhibition at 20 µM on Rho-A is 51 to 75%; at Rac-1 it was 25 to 50%; at KRas G12D mutant protein it was 51 to 75%; in assay [1], 51 to 75%.
As for `O=C(COCc1cccnc1)Nc1nc(-c2ccccn2)nc2sccc12` [drawing 3701], the inhibition at 20 µM was in the range of 76 to 100% on Rho-A, 76 to 100% on Rac-1, 51 to 75% on KRas G12D mutant protein and 51 to 75% in assay [1].
As for `O=C(c1csc2c(O)nc(-c3ccccn3)nc12)N1CC2CC1CN2c1ccccc1` (stereo not shown) [drawing 3710], the inhibition at 20 µM fell in the range of 76 to 100% on Rho-A, 76 to 100% at Rac-1, 51 to 75% on KRas G12D mutant protein and 76 to 100% in assay [1].
In the case of `COc1ccc(CCC(=O)Nc2nc(-c3ccccn3)nc3sccc23)cn1` [drawing 3812], the inhibition at 20 µM is 76 to 100% at Rho-A, 76 to 100% on Rac-1, 51 to 75% at KRas G12D mutant protein and 51 to 75% in assay [1].
For `COc1cnc(-c2ccccn2)nc1O` [drawing 3787], the inhibition at 20 µM on Rho-A is 76 to 100%; on Rac-1, 76 to 100%; at KRas G12D mutant protein, 51 to 75%; in assay [1], 51 to 75%.
For `Nc1nc(-c2ccccn2)nc2ccsc12` [drawing 3706], the inhibition at 20 µM fell in the range of 76 to 100% on Rho-A, 76 to 100% at Rac-1, 1 to 25% at KRas G12D mutant protein and 25 to 50% in assay [1].
Regarding `Oc1nc(-c2ccccn2)nc2sccc12` [drawing 3624], the inhibition at 20 µM on Rho-A lay in the range of 76 to 100%; on Rac-1, 76 to 100%; on KRas G12D mutant protein, 25 to 50%; in assay [1], 51 to 75%.
Regarding `Oc1nc(-c2ccccn2)nc2c(-c3cc(Cl)cc(Cl)c3)csc12` [drawing 3720], the inhibition at 20 µM on Rho-A lay in the range of 51 to 75%; at Rac-1, 25 to 50%; on KRas G12D mutant protein, 25 to 50%; in assay [1], 25 to 50%.
Take `O=C(COCc1ccncc1)Nc1nc(-c2ccccn2)nc2sccc12` [drawing 3700]: the inhibition at 20 µM lay within 76 to 100% on Rho-A, 76 to 100% on Rac-1, 51 to 75% at KRas G12D mutant protein and 51 to 75% in assay [1].
For `Oc1nc(-c2ccccn2)nc2c(C3CCCC3)csc12` [drawing 3814], the inhibition at 20 µM on Rho-A is 76 to 100%; on Rac-1, 76 to 100%; on KRas G12D mutant protein, 51 to 75%; in assay [1], 51 to 75%.
Turning to `OCC1(c2ccc(-c3csc4c(O)nc(-c5ccccn5)nc34)cc2)CC1` [drawing 3758], the inhibition at 20 µM is 76 to 100% on Rho-A, 76 to 100% on Rac-1, 76 to 100% on KRas G12D mutant protein and 51 to 75% in assay [1].
For the compound `Cc1sc2c(O)nc(-c3ccccn3)nc2c1-c1ccccc1Cl` [drawing 3833], the inhibition at 20 µM was in the range of 76 to 100% at Rho-A, 76 to 100% at Rac-1, 51 to 75% on KRas G12D mutant protein and 51 to 75% in assay [1].
For the compound `Nc1nc(-c2ccccn2)nc2c(-c3ccccc3)csc12` [drawing 3731], the inhibition at 20 µM fell in the range of 51 to 75% on Rho-A, 51 to 75% on Rac-1, 25 to 50% on KRas G12D mutant protein and 25 to 50% in assay [1].
Take `Oc1nc(-c2ccccn2)nc2c(-c3ccccn3)csc12` [drawing 3768]: the inhibition at 20 µM on Rho-A is 51 to 75%; at Rac-1, 51 to 75%; at KRas G12D mutant protein, 25 to 50%; in assay [1] it was 1 to 25%.
On to `O=C(O)c1cc2nc(-c3ccccn3)nc(O)c2s1` [drawing 3722], for which the inhibition at 20 µM lay within 76 to 100% at Rho-A, 76 to 100% on Rac-1, 51 to 75% on KRas G12D mutant protein and 51 to 75% in assay [1].
For `CC(C)c1csc2c(O)nc(-c3ccccn3)nc12` [drawing 3806], the inhibition at 20 µM (on Rho-A; at Rac-1; at KRas G12D mutant protein; in assay [1]) was 51 to 75% throughout.
Take `Oc1nc(-c2ccccn2)nc2c(-c3cc(F)ccc3OC(F)F)csc12` [drawing 3732]: the inhibition at 20 µM at Rho-A lay within 25 to 50%; at Rac-1, 51 to 75%; at KRas G12D mutant protein it was 51 to 75%; in assay [1] it was 25 to 50%.
Consider `COc1ccc(F)cc1-c1csc2c(O)nc(-c3ccccn3)nc12` [drawing 3746], for which the inhibition at 20 µM (at Rho-A; on Rac-1; at KRas G12D mutant protein; in assay [1]) was 51 to 75% throughout.
As for `COc1c(O)nc(-c2ccccn2)nc1Oc1cccc(C(F)(F)F)c1` [drawing 3875], the inhibition at 20 µM on Rho-A fell in the range of 76 to 100%; at Rac-1, 51 to 75%; at KRas G12D mutant protein, 76 to 100%; in assay [1], 51 to 75%.
With `Cc1sc2c(O)nc(-c3ccccn3)nc2c1C(=O)N1CCN(c2ccccc2)CC1C` (stereo not shown) [drawing 3828], the inhibition at 20 µM (on Rho-A; on Rac-1; on KRas G12D mutant protein; in assay [1]) was 51 to 75% throughout.
As for `Cc1cnccc1-c1csc2c(O)nc(-c3ccccn3)nc12` [drawing 3760], the inhibition at 20 µM was 76 to 100% on Rho-A, 76 to 100% on Rac-1, 51 to 75% at KRas G12D mutant protein and 51 to 75% in assay [1].
With `Oc1nc(-c2ccccn2)nc2c(-c3ccccc3Cl)csc12` [drawing 3626], the inhibition at 20 µM lay within 76 to 100% at Rho-A, 76 to 100% on Rac-1, 25 to 50% at KRas G12D mutant protein and 51 to 75% in assay [1].
Turning to `Oc1nc(-c2ccccn2)nc2c(CC3CCNC3)csc12` (stereo not shown) [drawing 3844], the inhibition at 20 µM lay within 76 to 100% on Rho-A, 76 to 100% at Rac-1, 51 to 75% on KRas G12D mutant protein and 51 to 75% in assay [1].
`Cc1sc2c(O)nc(-c3ccccn3)nc2c1-c1ccncc1` [drawing 3816]: the inhibition at 20 µM on Rho-A was in the range of 25 to 50%; at Rac-1 it was 51 to 75%; at KRas G12D mutant protein, 51 to 75%; in assay [1], 51 to 75%.
For the compound `COc1ccnc(-c2nc(O)c3ccsc3n2)c1` [drawing 3627], the inhibition at 20 µM lay within 51 to 75% at Rho-A, 76 to 100% at Rac-1, 51 to 75% at KRas G12D mutant protein and 51 to 75% in assay [1].
Regarding `O=C(COCc1ccnc(O)c1)Nc1nc(-c2ccccn2)nc2sccc12` [drawing 3729], the inhibition at 20 µM at Rho-A was 51 to 75%; at Rac-1, 51 to 75%; at KRas G12D mutant protein it was 25 to 50%; in assay [1], 51 to 75%.
Take `COc1cccc(-c2csc3c(O)nc(-c4ccccn4)nc23)c1` [drawing 3744]: the inhibition at 20 µM fell in the range of 51 to 75% at Rho-A, 51 to 75% on Rac-1, 76 to 100% at KRas G12D mutant protein and 25 to 50% in assay [1].
`COc1cccc(C2CN(C(=O)c3csc4c(O)nc(-c5ccccn5)nc34)CCN2)c1` (stereo not shown) [drawing 3662]: the inhibition at 20 µM is 76 to 100% at Rho-A, 76 to 100% at Rac-1, 51 to 75% on KRas G12D mutant protein and 25 to 50% in assay [1].
Take `COc1ccnc(-c2nc(O)c3c(Cl)csc3n2)c1` [drawing 3689]: the inhibition at 20 µM lay within 76 to 100% on Rho-A, 76 to 100% at Rac-1, 51 to 75% on KRas G12D mutant protein and 51 to 75% in assay [1].
Consider `Cc1sc2c(O)nc(-c3ccccn3)nc2c1-c1cccnc1` [drawing 3786], for which the inhibition at 20 µM at Rho-A fell in the range of 25 to 50%; at Rac-1, 51 to 75%; on KRas G12D mutant protein it was 51 to 75%; in assay [1] it was 25 to 50%.
Consider `CC(C)(O)c1ccc(-c2csc3c(O)nc(-c4ccccn4)nc23)c(F)c1` [drawing 3752], for which the inhibition at 20 µM on Rho-A was in the range of 51 to 75%; on Rac-1, 76 to 100%; on KRas G12D mutant protein, 51 to 75%; in assay [1] it was 51 to 75%.
For the compound `CN(C)Cc1ccc(F)c(-c2csc3c(O)nc(-c4ccccn4)nc23)c1` [drawing 3773], the inhibition at 20 µM was in the range of 76 to 100% at Rho-A, 51 to 75% on Rac-1, 51 to 75% at KRas G12D mutant protein and 25 to 50% in assay [1].
In the case of `COc1cnc(-c2nccn2C)nc1O` [drawing 3831], the inhibition at 20 µM (on Rho-A; at Rac-1; at KRas G12D mutant protein; in assay [1]) was 76 to 100% in each case.

The record behind these values is patent US10940139B2, “Compounds that interact with the Ras superfamily for the treatment of cancers, inflammatory diseases, rasopathies, and fibrotic disease” (Shy Therapeutics LLC, priority 2017, dated 2021).
